What is called EC50 is the concentration giving half of the maximal effect.

The subject of data set [1] is rgRSV224 virus. Nature of the data set: microbe, parasite or virus in culture. The note with it: human respiratory syncytial virus, 72 h; rgRSV224 virus (MOI=1), HeLa cells, GFP expression three days post-virus exposure; averaged data of several repeat experiments; read-out: RSV HELA EC50. The class given is cell-based.
Data set [2] can be described thus: in vitro. The note with it: human.

Turning to `CCc1cc(C(=O)N2CCc3ccccc3[C@H]2C)nn2cc(-c3ccc(/C=C/C(=O)O)cc3F)nc12` [Compound 36, (R,E)-3-(4-(8-ethyl-6-(1-methyl-1,2,3,4-tetrahydroisoquinoline-2-carbonyl)imidazo[1,2-b]pyridazin-2-yl)-3-fluorophenyl)acrylic Acid], the EC50 in data set [1] was 39 nM. The CC50 at 3 days in data set [2] was determined as 17200 nM.

For `CCc1cc(C(=O)N2CCc3ccccc3[C@H]2C)nn2cc(-c3ccc(N4C[C@H](O)[C@@H](O)C4)cc3F)nc12` [Compound 34, (2-(4-((3 S,4 S)-3,4-dihydroxypyrrolidin-1-yl)-2-fluorophenyl)-8-ethylimidazo[1,2-b]pyridazin-6-yl)((R)-1-methyl-3,4-dihydroisoquinolin-2(1H)-yl)methanone], in data set [1], the EC50 was found to be 12 nM. The CC50 at 3 days in data set [2] amounted to 24500 nM.

Consider `CCc1cc(C(=O)N2CCc3ccccc3[C@H]2C)nn2cc(-c3ccc4c(c3F)OCC(C(N)=O)=C4)nc12` [Compound 46, (R)-7-(8-ethyl-6-(1-methyl-1,2,3,4-tetrahydroisoquinoline-2-carbonyl)imidazo[1,2-b]pyridazin-2-yl)-8-fluoro-2H-chromene-3-carboxamide], for which the EC50 in data set [1] is 54 nM. For the same compound, the CC50 at 3 days in data set [2] is > 100000 nM.

On to `C[C@@H]1CCCCCN1C(=O)c1cc(C2CC2)c2nc(-c3ccc([C@H]4C[C@@H]4C(=O)O)cc3F)cn2n1` [Compound 33, (1S,2S)-2-(4-{8-Cyclopropyl-6-[(2R)-2-methylazepane-1-carbonyl]imidazo[1,2-b]pyridazin-2-yl}-3-fluorophenyl)cyclopropane-1-carboxylic Acid], for which the EC50 in data set [1] worked out at 67 nM. In data set [2], this compound gave a CC50 at 3 days of 50500 nM.

Take `C[C@@H]1c2ccccc2CCN1C(=O)c1cc(C2CC2)c2nc(-c3ccc(/C=C/C(=O)O)cc3F)cn2c1` [Compound 31, (R),(E)-3-(4-(8-cyclopropyl-6-(1-methyl-1,2,3,4-tetrahydroisoquinoline-2-carbonyl)imidazo[1,2-a]pyridin-2-yl)-3-fluorophenyl)acrylic acid]: in data set [1], the concentration for a half-maximal effect (EC50) came out at 158 nM. The CC50 at 3 days in data set [2] was determined as 49900 nM.

Values taken from patent US20220033396A1, “FURTHER HETEROAROMATIC COMPOUNDS HAVING ACTIVITY AGAINST RSV” (priority 2018, published 2022).
